Test results reported in ChEMBL document CHEMBL4177611, “Discovery of aminocyclohexene analogues as selective and orally bioavailable hNav1.7 inhibitors for analgesia” (Bioorg Med Chem Lett, 2017).
The source made the active and inactive calls.

What was measured:
[1] = Dissociation constant, pKa of the compound; format: physicochemical
[2] = Ratio of total drug level in iv dosed rat brain to plasma measured 2 hrs post dose; format: ADME, organism-based; conditions: read-out: BPR
[3] = Clearance in Sprague-Dawley rat administered as single iv bolus by LC-MS/MS analysis; format: ADME, organism-based; conditions: in vivo
[4] = Half life in Sprague-Dawley rat at 2 mg/kg administered as single dose via oral gavage by LC-MS/MS analysis; format: ADME, organism-based; conditions: in vivo
Rattus norvegicus [5] = experiment: Unbound AUC (0 to last) in Sprague-Dawley rat at 2 mg/kg administered as single dose via oral gavage by LC-MS/MS analysis; format: ADME, organism-based; conditions: in vivo
[6] = Initial plasma concentration in Sprague-Dawley rat at 0.5 mg/kg administered as single iv bolus by LC-MS/MS analysis; format: ADME, organism-based
[7] = target: Sodium channel protein type 4 subunit alpha (Homo sapiens, UniProt P35499); format: ADME
[8] = Fraction unbound in human plasma at 2 uM after 4 hrs by LC-MS/MS analysis; format: ADME, cell-free
[9] = Fraction unbound in rat plasma at 2 uM after 4 hrs by LC-MS/MS analysis; format: ADME, cell-free
[10] = AUC in Sprague-Dawley rat at 2 mg/kg administered as single dose via oral gavage by LC-MS/MS analysis; format: ADME, organism-based; conditions: in vivo
[11] = Cmax in Sprague-Dawley rat at 2 mg/kg administered as single dose via oral gavage by LC-MS/MS analysis; format: ADME, organism-based; set-up: dose 2 mg/kg, route oral; conditions: in vivo
[12] = Volume of distribution at steady state in Sprague-Dawley rat administered as single iv bolus by LC-MS/MS analysis; format: ADME, organism-based; conditions: in vivo, read-out: Vdss
[13] = Drug level in po dosed rat plasma treated with 5-chloro-4-(((1R,6R)-6-(ethylamino)-2-(4-fluorophenyl)cyclohex-2-enyl)methoxy)-2-fluoro-N-(thiazol-4-yl)benzenesulfonamide; format: ADME, organism-based; conditions: in vivo
Rattus norvegicus [14] = experiment: Antinociceptive activity in Sprague-Dawley rat formalin-induced nociception model assessed as inhibition of formalin-induced flinches in phase 2 at 30 mg/kg, po administered via oral gavage 60 mins before formalin challenge measured for 1 hr post dose; format: functional, organism-based
Cytochrome P450 3A4 = Cytochrome P450 3A4 (Homo sapiens, UniProt P08684)
physchem [15] = conditions: buffer, pH 7.4
in vitro [16] = conditions: human, Caco-2
[17] = Tmax in Sprague-Dawley rat at 10 mg/kg administered as single dose via oral gavage by LC-MS/MS analysis; format: ADME, organism-based; conditions: in vivo
Rattus norvegicus [18] = experiment: Unbound AUC (0 to last) in Sprague-Dawley rat at 10 mg/kg administered as single dose via oral gavage by LC-MS/MS analysis; format: ADME, organism-based; conditions: in vivo
Cytochrome P450 2C9 = Cytochrome P450 2C9 (Homo sapiens, UniProt P11712)
[19] = target: Voltage-gated inwardly rectifying potassium channel KCNH2 (Homo sapiens, UniProt Q12809)
[20] = target: Sodium channel protein type 5 subunit alpha (Homo sapiens, UniProt Q14524); experiment: Inhibition of human Nav1.5 expressed in HEK293 cells at -120 mV holding potential incubated over 5 mins measured at 15 secs interval by Qpatch clamp assay; format: cell-based
Homo sapiens [21] = organism: Homo sapiens; experiment: Selectivity ratio of IC50 for human Nav1.5 expressed in HEK293 cells to IC50 for human Nav1.7 expressed in CHO-K1 cells; format: cell-based
[22] = Drug uptake in Sprague-Dawley rat dorsal root ganglion at 100 mg/kg, ig measured after 2.5 hrs by LC-MS/MS analysis; format: ADME, organism-based; conditions: in vivo, po
[23] = Volume of distribution at steady state in Sprague-Dawley rat at 3 mg/kg administered as single iv bolus by LC-MS/MS analysis; format: ADME, organism-based; conditions: in vivo, read-out: Vdss
in vitro [24] = conditions: human, Caco-2; remark: listed apart in the source
[25] = AUC (0 to last) in Sprague-Dawley rat at 3 mg/kg administered as single iv bolus by LC-MS/MS analysis; format: ADME, organism-based; set-up: dose 3 mg/kg, route intravenous, time 0 - last; conditions: in vivo
[26] = Intrinsic clearance in rat liver microsomes at 1 uM after 60 mins in presence of NADPH by LC-MS/MS analysis; format: ADME, microsome; conditions: read-out: CLH
[27] = Unbound plasma concentration in Sprague-Dawley rat spinal nerve ligation model at 100 mg/kg administered as single dose via oral gavage measured after 1 hr by LC-MS/MS analysis; format: ADME, organism-based; conditions: in vivo
[28] = Plasma concentration in Sprague-Dawley rat spinal nerve ligation model at 100 mg/kg administered as single dose via oral gavage measured after 1 hr by LC-MS/MS analysis; format: ADME, organism-based
[29] = Unbound plasma concentration in Sprague-Dawley rat spinal nerve ligation model at 100 mg/kg administered as single dose via oral gavage measured after 4 hrs by LC-MS/MS analysis; format: ADME, organism-based; conditions: in vivo
[30] = Oral bioavailability in Sprague-Dawley rat at 10 mg/kg administered as single dose via gavage by LC-MS/MS analysis; format: ADME, organism-based; conditions: in vivo
[31] = Intrinsic clearance in human liver microsomes at 1 uM after 60 mins in presence of NADPH by LC-MS/MS analysis; format: ADME, microsome; conditions: read-out: CLH
[32] = AUC (0 to last) in Sprague-Dawley rat at 10 mg/kg administered as single dose via oral gavage by LC-MS/MS analysis; format: ADME, organism-based; set-up: dose 10 mg/kg, route oral, time 0 - last; conditions: in vivo
Cytochrome P450 2D6 = Cytochrome P450 2D6 (Homo sapiens, UniProt P10635)
[33] = Initial plasma concentration in Sprague-Dawley rat at 3 mg/kg administered as single iv bolus by LC-MS/MS analysis; format: ADME, organism-based
Rattus norvegicus [34] = experiment: Antinociceptive activity in Sprague-Dawley rat formalin-induced nociception model assessed as inhibition of formalin-induced flinches in phase 1 at 30 mg/kg, po administered via oral gavage 60 mins before formalin challenge measured for 1 hr post dose; format: functional, organism-based
[35] = Plasma concentration in Sprague-Dawley rat spinal nerve ligation model at 100 mg/kg administered as single dose via oral gavage measured after 4 hrs by LC-MS/MS analysis; format: ADME, organism-based
Cytochrome P450 2C19 = Cytochrome P450 2C19 (Homo sapiens, UniProt P33261)
[36] = Half life in Sprague-Dawley rat at 10 mg/kg administered as single dose via oral gavage by LC-MS/MS analysis; format: ADME, organism-based; conditions: in vivo
Homo sapiens [37] = organism: Homo sapiens; experiment: Selectivity ratio of IC50 for human Nav1.4 to IC50 for human Nav1.7 expressed in CHO-K1 cells; format: cell-based
Cytochrome P450 1A2 = target: T1, Cytochrome P450 1A2 (Homo sapiens, UniProt P05177)
T1 sequence (P05177 whole entry): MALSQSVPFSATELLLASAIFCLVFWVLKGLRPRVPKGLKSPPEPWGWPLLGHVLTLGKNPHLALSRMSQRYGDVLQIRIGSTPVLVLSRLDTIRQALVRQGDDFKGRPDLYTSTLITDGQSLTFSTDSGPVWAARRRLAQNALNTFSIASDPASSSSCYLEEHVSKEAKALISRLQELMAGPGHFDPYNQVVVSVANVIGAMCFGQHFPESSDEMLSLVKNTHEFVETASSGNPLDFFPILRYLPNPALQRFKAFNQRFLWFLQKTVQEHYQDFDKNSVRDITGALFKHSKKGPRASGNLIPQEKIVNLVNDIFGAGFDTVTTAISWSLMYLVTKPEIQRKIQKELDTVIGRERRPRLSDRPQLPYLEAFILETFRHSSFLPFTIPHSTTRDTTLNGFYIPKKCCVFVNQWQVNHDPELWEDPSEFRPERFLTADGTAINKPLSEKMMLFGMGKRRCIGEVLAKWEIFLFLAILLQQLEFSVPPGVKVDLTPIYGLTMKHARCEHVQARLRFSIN

physchem [38] = conditions: buffer, pH 7.4; remark: listed apart in the source
[39] = Clearance in Sprague-Dawley rat at 3 mg/kg administered as single iv bolus by LC-MS/MS analysis; format: ADME, organism-based; conditions: in vivo
[40] = target: Sodium channel protein type 9 subunit alpha (Homo sapiens, UniProt Q15858); experiment: Inhibition of human Nav1.7 expressed in CHO-K1 cells at -120 mV holding potential incubated over 5 mins measured at 15 secs interval by Qpatch clamp assay; format: cell-based
[41] = Plasma concentration in Sprague-Dawley rat spinal nerve ligation model at 100 mg/kg administered as single dose via oral gavage measured after 2 hrs by LC-MS/MS analysis; format: ADME, organism-based
[42] = AUC in Sprague-Dawley rat at 10 mg/kg administered as single dose via oral gavage by LC-MS/MS analysis; format: ADME, organism-based; conditions: in vivo
[43] = Cmax in Sprague-Dawley rat at 10 mg/kg administered as single dose via oral gavage by LC-MS/MS analysis; format: ADME, organism-based; set-up: dose 10 mg/kg, route oral; conditions: in vivo
[44] = Unbound plasma concentration in Sprague-Dawley rat spinal nerve ligation model at 100 mg/kg administered as single dose via oral gavage measured after 2 hrs by LC-MS/MS analysis; format: ADME, organism-based; conditions: in vivo
Rattus norvegicus [45] = experiment: Antiallodynic activity in Sprague-Dawley rat spinal nerve ligation model assessed as reduction in mechanical allodynia by measuring paw withdrawal threshold at 100 mg/kg, po measured at 2 hrs post dose; format: functional, organism-based
[46] = Half life in Sprague-Dawley rat at 3 mg/kg administered as single iv bolus by LC-MS/MS analysis; format: ADME, organism-based; conditions: in vivo

Sequence of Sodium channel protein type 4 subunit alpha (P35499 whole entry): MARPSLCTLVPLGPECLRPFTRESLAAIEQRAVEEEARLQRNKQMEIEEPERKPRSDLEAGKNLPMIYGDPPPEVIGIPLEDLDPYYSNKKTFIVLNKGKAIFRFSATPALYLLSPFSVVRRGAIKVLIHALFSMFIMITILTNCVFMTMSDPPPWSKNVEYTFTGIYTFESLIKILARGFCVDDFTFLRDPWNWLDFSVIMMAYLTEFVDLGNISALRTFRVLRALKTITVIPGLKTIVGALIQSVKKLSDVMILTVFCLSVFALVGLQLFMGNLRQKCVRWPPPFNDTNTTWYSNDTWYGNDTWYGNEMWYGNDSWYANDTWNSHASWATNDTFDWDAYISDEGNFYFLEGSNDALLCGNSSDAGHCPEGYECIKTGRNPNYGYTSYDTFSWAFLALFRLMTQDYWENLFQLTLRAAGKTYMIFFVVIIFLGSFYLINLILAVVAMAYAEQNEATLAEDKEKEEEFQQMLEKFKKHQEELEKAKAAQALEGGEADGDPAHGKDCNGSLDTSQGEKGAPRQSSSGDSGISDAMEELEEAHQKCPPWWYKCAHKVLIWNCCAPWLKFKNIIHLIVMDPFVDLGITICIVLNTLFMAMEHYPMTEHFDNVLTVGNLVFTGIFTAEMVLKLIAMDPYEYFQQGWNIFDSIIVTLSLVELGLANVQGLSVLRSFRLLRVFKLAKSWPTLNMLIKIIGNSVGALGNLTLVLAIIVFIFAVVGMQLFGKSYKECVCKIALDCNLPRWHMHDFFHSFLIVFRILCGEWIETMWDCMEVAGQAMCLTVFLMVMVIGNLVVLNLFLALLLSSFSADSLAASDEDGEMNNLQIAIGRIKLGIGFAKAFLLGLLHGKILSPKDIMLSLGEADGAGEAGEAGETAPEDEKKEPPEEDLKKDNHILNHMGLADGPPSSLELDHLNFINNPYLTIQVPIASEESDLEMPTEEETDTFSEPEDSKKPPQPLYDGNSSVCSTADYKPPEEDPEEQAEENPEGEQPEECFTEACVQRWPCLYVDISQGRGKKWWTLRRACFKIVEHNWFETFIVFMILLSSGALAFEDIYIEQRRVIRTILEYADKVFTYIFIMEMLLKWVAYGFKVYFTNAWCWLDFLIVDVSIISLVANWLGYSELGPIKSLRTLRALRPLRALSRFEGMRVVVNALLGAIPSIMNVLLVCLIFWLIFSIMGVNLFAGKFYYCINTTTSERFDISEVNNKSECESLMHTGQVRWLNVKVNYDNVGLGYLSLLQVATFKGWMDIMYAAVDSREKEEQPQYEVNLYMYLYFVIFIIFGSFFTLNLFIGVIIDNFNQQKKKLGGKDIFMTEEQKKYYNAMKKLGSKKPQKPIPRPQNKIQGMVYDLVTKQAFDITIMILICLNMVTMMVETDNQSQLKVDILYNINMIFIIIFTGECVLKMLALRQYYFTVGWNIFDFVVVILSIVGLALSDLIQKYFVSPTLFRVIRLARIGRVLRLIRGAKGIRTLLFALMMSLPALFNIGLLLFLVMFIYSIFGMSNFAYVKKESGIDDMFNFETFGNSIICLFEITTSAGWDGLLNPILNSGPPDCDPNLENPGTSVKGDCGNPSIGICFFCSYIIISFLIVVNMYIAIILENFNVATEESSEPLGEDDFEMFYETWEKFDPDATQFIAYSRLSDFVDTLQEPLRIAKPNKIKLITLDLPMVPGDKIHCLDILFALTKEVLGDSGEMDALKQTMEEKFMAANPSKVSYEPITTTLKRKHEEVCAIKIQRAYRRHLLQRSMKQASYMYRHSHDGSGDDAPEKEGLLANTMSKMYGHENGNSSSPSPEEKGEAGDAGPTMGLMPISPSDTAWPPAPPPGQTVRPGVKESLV
Sequence of Cytochrome P450 2D6 (P10635 whole entry): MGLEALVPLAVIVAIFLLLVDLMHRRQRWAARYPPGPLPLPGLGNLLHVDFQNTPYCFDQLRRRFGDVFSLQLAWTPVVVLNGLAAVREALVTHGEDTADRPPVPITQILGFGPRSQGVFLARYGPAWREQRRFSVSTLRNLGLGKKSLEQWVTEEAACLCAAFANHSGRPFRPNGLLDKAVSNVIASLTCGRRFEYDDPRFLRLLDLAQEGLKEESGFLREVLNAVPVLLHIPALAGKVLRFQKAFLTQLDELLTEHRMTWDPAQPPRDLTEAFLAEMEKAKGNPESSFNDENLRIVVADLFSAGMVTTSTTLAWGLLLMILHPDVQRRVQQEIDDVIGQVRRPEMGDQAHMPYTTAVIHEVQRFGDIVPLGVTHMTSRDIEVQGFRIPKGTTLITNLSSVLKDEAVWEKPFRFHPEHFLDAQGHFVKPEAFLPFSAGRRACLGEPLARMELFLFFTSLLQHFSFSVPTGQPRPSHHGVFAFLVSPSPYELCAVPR
Sequence of Cytochrome P450 2C9 (P11712 whole entry): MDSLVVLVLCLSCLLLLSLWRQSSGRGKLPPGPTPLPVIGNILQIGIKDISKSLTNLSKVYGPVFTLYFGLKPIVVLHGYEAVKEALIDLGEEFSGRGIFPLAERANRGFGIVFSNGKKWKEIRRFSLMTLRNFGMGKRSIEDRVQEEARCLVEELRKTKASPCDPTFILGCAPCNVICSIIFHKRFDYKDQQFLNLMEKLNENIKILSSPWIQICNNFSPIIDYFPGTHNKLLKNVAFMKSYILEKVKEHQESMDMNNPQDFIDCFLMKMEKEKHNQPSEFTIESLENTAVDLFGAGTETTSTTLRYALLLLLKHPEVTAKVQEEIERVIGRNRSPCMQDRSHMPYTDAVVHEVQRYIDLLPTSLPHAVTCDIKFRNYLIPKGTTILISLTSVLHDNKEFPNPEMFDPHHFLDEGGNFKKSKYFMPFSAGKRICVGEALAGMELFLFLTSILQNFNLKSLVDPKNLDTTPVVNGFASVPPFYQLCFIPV
Sequence of Cytochrome P450 3A4 (P08684 whole entry): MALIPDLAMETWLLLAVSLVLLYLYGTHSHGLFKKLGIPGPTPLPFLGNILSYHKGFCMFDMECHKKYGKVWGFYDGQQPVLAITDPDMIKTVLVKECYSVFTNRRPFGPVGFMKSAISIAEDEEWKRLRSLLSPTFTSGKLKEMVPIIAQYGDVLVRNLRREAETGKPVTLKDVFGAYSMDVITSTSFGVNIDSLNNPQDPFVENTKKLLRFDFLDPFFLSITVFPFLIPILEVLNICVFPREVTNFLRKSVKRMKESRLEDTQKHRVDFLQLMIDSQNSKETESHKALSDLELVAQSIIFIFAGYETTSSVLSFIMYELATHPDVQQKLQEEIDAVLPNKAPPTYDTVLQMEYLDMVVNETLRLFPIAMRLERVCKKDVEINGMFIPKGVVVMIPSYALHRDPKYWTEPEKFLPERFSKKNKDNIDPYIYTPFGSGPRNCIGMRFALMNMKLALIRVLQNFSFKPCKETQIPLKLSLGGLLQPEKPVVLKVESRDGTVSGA
Sequence of Cytochrome P450 2C19 (P33261 whole entry): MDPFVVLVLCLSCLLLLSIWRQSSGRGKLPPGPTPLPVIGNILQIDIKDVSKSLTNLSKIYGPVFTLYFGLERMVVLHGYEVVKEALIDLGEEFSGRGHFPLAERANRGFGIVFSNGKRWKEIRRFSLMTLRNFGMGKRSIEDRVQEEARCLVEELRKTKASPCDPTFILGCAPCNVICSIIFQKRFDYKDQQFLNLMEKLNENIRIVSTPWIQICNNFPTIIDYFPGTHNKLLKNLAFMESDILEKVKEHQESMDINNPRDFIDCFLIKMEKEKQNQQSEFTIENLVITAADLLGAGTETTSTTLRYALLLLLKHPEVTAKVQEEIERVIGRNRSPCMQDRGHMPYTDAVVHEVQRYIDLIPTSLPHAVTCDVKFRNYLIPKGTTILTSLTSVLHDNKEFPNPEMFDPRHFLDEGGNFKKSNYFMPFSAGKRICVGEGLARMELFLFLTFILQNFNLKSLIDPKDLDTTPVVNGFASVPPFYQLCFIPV
Sequence of Voltage-gated inwardly rectifying potassium channel KCNH2 (Q12809 whole entry): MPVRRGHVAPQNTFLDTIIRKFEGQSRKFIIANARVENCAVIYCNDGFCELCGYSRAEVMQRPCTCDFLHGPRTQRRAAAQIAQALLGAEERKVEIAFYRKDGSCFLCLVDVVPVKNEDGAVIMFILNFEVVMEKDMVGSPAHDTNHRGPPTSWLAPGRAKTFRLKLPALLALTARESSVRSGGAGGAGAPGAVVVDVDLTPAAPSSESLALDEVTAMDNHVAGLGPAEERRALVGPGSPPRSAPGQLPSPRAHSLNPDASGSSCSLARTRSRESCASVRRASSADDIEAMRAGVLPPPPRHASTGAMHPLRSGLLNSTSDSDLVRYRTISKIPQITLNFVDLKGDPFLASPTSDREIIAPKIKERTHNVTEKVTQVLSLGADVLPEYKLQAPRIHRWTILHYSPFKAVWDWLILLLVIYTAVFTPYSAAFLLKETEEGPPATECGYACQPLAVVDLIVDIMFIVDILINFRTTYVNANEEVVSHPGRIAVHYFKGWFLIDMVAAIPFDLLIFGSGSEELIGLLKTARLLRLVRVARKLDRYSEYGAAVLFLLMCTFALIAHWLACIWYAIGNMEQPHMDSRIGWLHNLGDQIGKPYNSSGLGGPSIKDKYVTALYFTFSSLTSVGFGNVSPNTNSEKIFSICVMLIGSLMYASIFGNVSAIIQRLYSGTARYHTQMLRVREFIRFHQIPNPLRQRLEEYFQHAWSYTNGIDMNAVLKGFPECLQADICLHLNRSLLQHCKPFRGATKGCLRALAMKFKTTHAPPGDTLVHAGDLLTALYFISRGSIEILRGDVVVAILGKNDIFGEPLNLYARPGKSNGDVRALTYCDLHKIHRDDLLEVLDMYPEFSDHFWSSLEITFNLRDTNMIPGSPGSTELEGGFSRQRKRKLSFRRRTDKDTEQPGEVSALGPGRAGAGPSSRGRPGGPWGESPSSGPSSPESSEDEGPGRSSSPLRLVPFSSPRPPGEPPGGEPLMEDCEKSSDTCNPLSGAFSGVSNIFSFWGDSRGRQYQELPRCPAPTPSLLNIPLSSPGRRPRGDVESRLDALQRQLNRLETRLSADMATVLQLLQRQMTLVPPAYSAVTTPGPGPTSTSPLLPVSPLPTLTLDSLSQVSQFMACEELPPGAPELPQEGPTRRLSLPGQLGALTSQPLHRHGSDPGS

N[C@@H]1CCC=C(c2ccc(F)cc2)[C@H]1COc1cc(F)c(S(=O)(=O)Nc2cscn2)cc1Cl
pKa [1]: 6.13 to 9.05 | Kp at 2 h [2]: 0.13 | clearance [3]: 39 to 39.2 mL/min/kg | half-life [4]: 2.74 h | fAUClast (Rattus norvegicus [5]): 0.005 µM·h | C0 [6]: 410 nM | IC50 [7]: 4 µM | fraction unbound at 4 h, 2 µM [8]: 0.008 | fraction unbound at 4 h, 2 µM [9]: 0.02 | AUC [10]: 0.25 µM·h | Cmax [11]: 50 nM | Vd [12]: 8.91 L/kg | Drug uptake [13]: Active

Cl.N[C@@H]1CCC=C(c2ccc(F)cc2)[C@H]1CNc1cc(F)c(S(=O)(=O)Nc2cscn2)cc1Cl
inhibition (Rattus norvegicus [14]): Active | pKa [1]: 7.09 to 9.18 | IC50 (Cytochrome P450 3A4): 33 µM | solubility thermodynamic (physchem [15]): 135 µM | Papp A→B at 2 h, 2 µM (in vitro [16]): 0.04 ×10⁻⁶ cm/s | Tmax [17]: 2.67 h | fAUClast (Rattus norvegicus [18]): 0.141 µM·h | IC50 (Cytochrome P450 2C9): 11.8 µM | IC50 [19]: 4.6 µM | IC50 [20]: 4.02 µM | Ratio IC50 (Homo sapiens [21]): > 30 | Drug uptake [22]: 3.1 µM/g | Vd [23]: 5.77 L/kg | efflux ratio at 2 h, 2 µM (in vitro [24]): 251 | AUC(0-t) [25]: 4.92 µM·h | CLint scaled at 1 µM [26]: 30.4 mL/min/kg | Cp(f) [27]: 108 nM | clearance [3]: 19.8 mL/min/kg | concentration at 1 h [28]: 3740 nM | Cp(f) [29]: 91 nM | bioavailability [30]: 30% | CLint scaled at 1 µM [31]: 17.5 mL/min/kg | AUC(0-t) [32]: 4.86 µM·h | IC50 (Cytochrome P450 2D6): 3 µM | C0 [33]: 2800 nM | inhibition (Rattus norvegicus [34]): inactive | concentration at 4 h [35]: 3160 nM | IC50 (Cytochrome P450 2C19): 26.2 µM | half-life [36]: 3.39 h | Ratio IC50 (Homo sapiens [37]): > 30 | IC50 [7]: 2.9 µM | fraction unbound at 4 h, 2 µM [8]: 0.004 | IC50 (Cytochrome P450 1A2): > 50 µM | fraction unbound at 4 h, 2 µM [9]: 0.029 | logD (physchem [38]): 1.5 | clearance [39]: 19.8 mL/min/kg | IC50 [40]: 0.088 µM | concentration at 2 h [41]: 3820 nM | AUC [42]: 4.86 µM·h | Cmax [43]: 660 nM | Cp(f) [44]: 110 nM | Activity (Rattus norvegicus [45]): Active | half-life [46]: 3.64 h | Vd [12]: 5.77 L/kg
